Results as given in patent US20110124604A1, “PHOSPHOLIPID RECEPTORS AS TARGETS FOR ENHANCING DRUG PERMEABILITY TO SELECTED TISSUES” (priority 2006, published 2011).
Entries after “also recorded” stand apart in the source; their conditions may differ.

How the values were obtained:
[1] = test system: bovine brain microvessel endothelial cell (BBMEC) monolayers; assay: Permeability of confluent BBMEC monolayers (FDX-3000 flux); format: cell-based; settings: for effect on BBMEC permeability in words: 0.1, 1 and 10 uM; for onset of permeability effect: earliest time point tested 15 min
Experimental: The permeability effects of LPA and S1P were examined in various microvessel endothelial cell preparations. […] The BBMECs and the PBMEC were seeded (50,000 cells/cm2) on collagen coated, fibronectin treated, 6-well Transwell polycarbonate membrane inserts (0.4 um pore/24 mm diameter). The culture media consisted of: 45% minimum essential medium eagle (MEM), 45% Ham's P 12 nutrient mix, 10 mM HEPES, 13 mM sodium bicarbonate, 50 ug/ml gentamicin, 10% equine serum, 2.5 ug/ml amphotericin B, and 100 ug/ml heparin. The cell cultures were grown in a humidified 37° C. incubator with 5% CO2. The media was replaced every other day, and the BBMEC and PBMEC monolayers were used after reaching confluency (approximately 11-14 days).
Lyophilized LPA and S1P was purchased as lyophilized powder and was reconstituted into a 10 mM stock solution using 0.25% fatty acid-free bovine serum albumin (BSA) in assay buffer and kept at −20° C. until used. Working solutions of the phospholipids and C5a were prepared by diluting in assay buffer (0.25% BSA in the assay buffer).
Permeability studies were performed on confluent BBMEC and PBMEC, monolayers at 370 C. All the cells were pretreated with assay buffer for 30 minutes at 37° C. The control group was treated with assay buffer (0.25% BSA [fatty acid free]). For these studies, 1.5 ml of assay buffer was added to the lumina] (apical) side of the monolayer and 2.5 ml of assay buffer was added to the ablumenal (basolateral) side of the monolayer. Treatment groups received either LPA (0.1, 1, and 10 uM) or S1P (0.1, 1, 10 uM), alone and in combination, on both sides of the inserts. Permeability across the cell monolayers was determined by adding 10 uM fluorescein-labeled dextran (FDX-3000; MW 3000) to the donor (apical) compartment. Samples (100 ul) were removed from the receiver (basolateral) compartment at various times (0, 15, 30, 60 and 90 minutes). Samples (100 ul) were also taken from the donor compartment at the start (time 0) and conclusion (90 min) of the experiment. The concentration of FDX-3000 in the donor and receiver samples was measured spectrofluorometrically using a Shimadzu RFU5000 spectrofluorometer (Shimadzu Scientific Instruments, Columbia, Md., USA) with Ex (7 v) at 488 nm and Em (2 k.) at 510 nm. Permeability was expressed as the percent transfer of the fluorescent marker across the monolayers. The percent transfer was determined by dividing the cumulative concentration in the receiver compartment by the original concentration in the donor compartment at time zero. Permeability coefficients were calculated from the following formula:
V=volume of receiver chamber SA=surface area of cell monolayer Cd=conc of marker in the donor at time 0 Cr=the cumulative conc of marker in the receiver at the sample at time T

blood-brain barrier [2] = assay: Rat cranial window model, clearance of FDX 10 kDa; format: in vivo; settings: LPA 10 uM
Experimental: Cerebral vascular permeability was also evaluated using the rat cranial window model. For these studies male Wistar-Furth rats (n=15) were anesthetized (Inactin; thiobutabarbital 100 mg/kg ip), and a tracheotomy was performed. The rats were mechanically ventilated with room air and supplemental oxygen. A catheter was placed in the femoral artery for the measurement of systemic blood pressure and to obtain blood samples. A catheter was placed in the femoral vein for injection of intravascular tracer FDX 10 10a. […] Blood gases were also monitored and maintained within normal limits. […]
Permeability of the BBB was evaluated by calculating the clearance of FDX 10 kDa (10^−6 ml/s) from the area of parietal cortex exposed by the craniotomy, as previously described (Mayhan and Heistad, Am J. Physiol, 248: H712-H718, 1985; Mayhan, Brain Research, 927: 144-152, 2002). Briefly, the suffusate fluid was collected in glass test tubes with the aide of a fraction collector, and the concentration of FDX in the suffusate fluid during topical application of vehicle (saline) or LPA (10 μM) was determined using a spectrofluorometer. […] The clearance of 1010a FDX was calculated by multiplying the suffusate-to-plasma concentration by the suffusate flow rate (Mayhan and Heistad, Am J. Physiol, 248: H712-H718, 1985; Mayhan, Brain Research, 927: 144-152, 2002). […]

BBMEC monolayers = assay: Polarity studies: apical or basolateral application on BBMEC monolayers; format: cell-based, bovine
Experimental: (§1) The permeability effects of LPA and S1P were examined in various microvessel endothelial cell preparations. Primary bovine and porcine brain microvessel endothelial cells (BBMEC and PBMEC, respectively) were collected from the gray matter of fresh cow and pig cerebral cortices using a combination of enzymatic digestion and centrifugal separation methods previously described. The BBMECs and the PBMEC were seeded (50,000 cells/cm2) on collagen coated, fibronectin treated, 6-well Transwell polycarbonate membrane inserts (0.4 um pore/24 mm diameter). The culture media consisted of: 45% minimum essential medium eagle (MEM), 45% Ham's P 12 nutrient mix, 10 mM HEPES, 13 mM sodium bicarbonate, 50 ug/ml gentamicin, 10% equine serum, 2.5 ug/ml amphotericin B, and 100 ug/ml heparin. […]
For studies examining the functional polarity of LPA and S1P […] of the phospholipids were applied to either the apical or basolateral side of confluent brain microvessel endothelial cell monolayers. There was 30 min AB pretreatment followed by treatment with either LPA and S1P on either apical and/or basolateral side and the flux of FDX-3000 across the monolayer was measured. Permeability across the cell monolayers was determined by adding 10 uM fluorescein-labeled dextran (FDX-3000; MW 3000) to the donor compartment. […] Samples were analyzed as described above.

blood-brain barrier [3] = assay: In vivo permeability study, 3H-methotrexate tissue distribution in mice; set-up: species or system mouse
Experimental: (§2) FIG. 11. Bar graph showing 20 fold increase in ^3H-methotrexate uptake in mouse brain when LPA is present. Adult female Balb/c mice were administered radiolabeled methotrexate via bolus tail vein injection. The radiolabeled methotrexate was given either alone, or in the presence of 1.0 mg/kg LPA. Fifteen minutes after injection of radiolabeled methotrexate, the mice were sacrificed and blood and tissue (brain, lung, kidney and liver) samples removed. The brain was homogenized and the cerebral microvascular endothelial cells were separated from the rest of the brain via centrifugation in 13% dextran solution at 7500×g for 15 minutes. Samples of the brain parachyma were removed for determination of radioactivity along with other tissue homogenates. Under normal conditions less than 1% of the injected dose of radiolabeled methotrexate was delivered to the brain. However, in the presence of LPA, an approximately 20-fold enhancement of radiolabeled methotrexate delivery to the brain was observed.
(§3) Female Balb/c mice were used to assess BBB permeability in vivo. Mice received a bolus injection (ml/kg) of ^3H-methotrexate (4 uCi total activity) via the tail vein. The radiolabeled methotrexate was given in combination with either LPA (1 mg/kg) or vehicle (0.25% bovine serum albumin in phosphate buffered saline solution). Fifteen minutes after the injection of methotrexate, mice were anesthetized using intraperitoneal injection of ketamine and xylazine and a sample of blood was removed by cardiac puncture. Following the blood sample, mice were sacrificed and various tissues including, the brain, lung, liver and kidney, were removed for determination of 3H-methotrexate. Blood samples were spun for 8-10 minutes and 100 uL of plasma was collected. Tissue samples were weighed and homogenized with double the volume of tissue solubilizing agent (Scintigest™, Fisher Scientific). A 200 uL aliquot of the tissue homogenate was used to analyse the tissue samples. The samples were then mixed with Ultima Gold™ (Perkin Elmer) scintillation cocktail and analysed by liquid scintillation counter (Perkin Elmer) to determine the amount of ^3H-methotrexate present in the blood and tissue. The distribution of ^3H-methotrexate was based on the ratio of the radioactivity in the tissue versus the radioactivity in the plasma sample.

[4] = test system: porcine brain microvessel endothelial cells (PBMEC); assay: Permeability of porcine BMEC monolayers (FDX-3000 flux); format: cell-based; settings: LPA 0.1, 1 and 10 uM
Experimental: as §1, with “diameter).” for “diameter). The culture media consisted of: 45% minimum essential medium eagle (MEM), 45% Ham's P 12 nutrient mix, 10 mM HEPES, 13 mM sodium bicarbonate, 50 ug/ml gentamicin, 10% equine serum, 2.5 ug/ml amphotericin B, and 100 ug/ml heparin.”
Permeability studies were performed on confluent BBMEC and PBMEC, monolayers at […]. […] Permeability across the cell monolayers was determined by adding 10 uM fluorescein-labeled dextran (FDX-3000; MW 3000) to the donor (apical) compartment. […] The concentration of FDX-3000 in the donor and receiver samples was measured spectrofluorometrically using a Shimadzu RFU5000 spectrofluorometer (Shimadzu Scientific Instruments, Columbia, Md., USA) with Ex (7 v) at 488 nm and Em (2 k.) at 510 nm. Permeability was expressed as the percent transfer of the fluorescent marker across the monolayers. The percent transfer was determined by dividing the cumulative concentration in the receiver compartment by the original concentration in the donor compartment at time zero. Permeability coefficients were calculated from the following formula: […]

blood-brain barrier [5] = format: in vivo, mouse; settings: 15 minutes, mice
Experimental: FIG. 12. Adult female Balb/c mice were anesthetized with ketamine xylazine cocktail, and given a bolus i.v. (tail vein) injection of the near infrared fluorescent dye, rhodamine 800 (3.2 μmol/kg) either alone or in the presence of LPA (1.0 mg/kg) or the combination of LPA and S1P (0.1 mg/kg). Mice were sacrificed at 15 minutes following injection of rhodamine 800 and following perfusion with formalin through cardiac puncture, the brain was removed and sliced (3 mm) coronally. The appearance of rhodamine 800 was visualized using an Odyssey near infrared imaging system. […] The rhodamine 800 is confined primarily to the cerebral spinal fluid present in the ventricles (the small bright regions observed in the various brain slices). […] This is evident by the intense bright fluorescence of the brain slices in the LPA treated mouse.

[6] = In vivo permeability study, 3H-methotrexate tissue distribution in mice; set-up: species or system mouse; settings: female, Balb/c, mouse, brain / plasma, intravenous, 4 uCi total activity; methotrexate alone; 15 minutes after systemic administration; read-out: brain to plasma ratio of 3H-methotrexate in control mice
Experimental: as §2, §3

[7] = LPA 1 mg/kg i.v., 15 minutes, mice

Molecule: CCO [Ethanol, ethanol, reference compound]
- increase in BBMEC monolayer permeability ([1]; ethanol 50 mM): 3 fold

Molecule: lysophosphatidic acid [LPA]
- effect on BBMEC permeability in words ([1]; FDX-3000): concentration-dependent increase
- onset of permeability effect ([1]; BBMEC): ≤ 15 min
- increase in the permeability of BBMEC monolayers ([1]; LPA 10 uM, FDX-3000): 2 fold
- increase in monolayer permeability ([1]; LPA 0.1 and 1 uM, FDX-3000, BBMEC): ~1.5 fold
- onset of effect on cerebral vascular permeability (blood-brain barrier [2]): rapid in onset (within minutes)
- reversal of permeability after LPA was stopped (blood-brain barrier [2]): returned to baseline levels extremely rapidly; also recorded: equally rapid in returning to baseline permeability
- increase in permeability following apical or basolateral application (BBMEC monolayers; LPA 10 uM, BBMEC): 2 fold
- effect on 3H-methotrexate accumulation in liver or kidney (blood-brain barrier [3]; [7]): no significant increases; also recorded: no effect
- increase in 3H-methotrexate accumulation in the lung (blood-brain barrier [3]; [7]): approximately 3 fold
- brain to plasma ratio of 3H-methotrexate with LPA (blood-brain barrier [3]; LPA 1 mg/kg, 15 minutes after administration, mice): approximately 20%
- onset of action in the mouse (blood-brain barrier [3]; LPA, mouse): ≤ 15 min
- effect on porcine BMEC permeability in words [4]: concentration-dependent increase
- rhodamine 800 delivery to the brain with LPA (blood-brain barrier [5]; LPA 1.0 mg/kg i.v. with rhodamine 800 3.2 μmol/kg): substantially greater rhodamine 800 was delivered to the brain

Molecule: CN(Cc1cnc2nc(N)nc(N)c2n1)c1ccc(C(=O)N[C@@H](CCC(=O)O)C(=O)O)cc1 [^3H-methotrexate, methotrexate, reference compound]
- Kp at 15 min [6]: ~0.02
- share of the injected dose delivered to the brain (blood-brain barrier [3]; radiolabeled methotrexate alone, normal conditions, mice): less than 1%

Molecule: CCCCCCCCCCCCC/C=C/[C@@H](O)[C@@H](N)COP(=O)(O)O [S1P, sphingosine 1-phosphate]
- effect on BBMEC permeability in words ([1]; FDX-3000): equally as robust decrease in permeability; also recorded: decreased the permeability of FDX-3000; also recorded: concentration-dependent decreases
- onset of permeability effect ([1]; BBMEC): ≤ 15 min
- effect on the BBMEC permeability ([1]; S1P 0.1 uM): no significant effect
- decrease in permeability of BBMEC ([1]; S1P 1 and 10 uM): 2 fold
- effect of S1P on the permeability increase induced by LPA ([1]; S1P (10 uM) co-administered with LPA, BBMEC): completely overcome; also recorded: totally prevented; also recorded: abolished
- effect of S1P on the permeability effect of ethanol ([1]; ethanol 50 mM and S1P, BBMEC): abolished; also recorded: decrease in permeability
- effect of S1P on the permeability effect of horse serum ([1]; horse serum 10% and S1P, BBMEC): abolished; also recorded: decreased the permeability effect
- duration of permeability effect ([1]; in the presence of S1P): 90 min
- decrease in BBMEC monolayer permeability, applied apically or basolaterally (BBMEC monolayers; S1P 10 uM): approximately 2 fold
- effect of S1P on the LPA-induced increase in rhodamine 800 brain distribution (blood-brain barrier [5]; LPA 1.0 mg/kg and S1P 0.1 mg/kg i.v.): prevents the increases
